The values that follow come from patent US20220409617A1, “Drug Formulations and Methods of Treatment for Metabolic Disorders” (The Regents of the University of California, priority 2019, published 2022).

Assay [1] deals with ob/ob mice. In words: Leptin-deficient ob/ob mice: food intake, body weight, OGTT. The assay is classed as in vivo, mouse. How it is done: To more rigorously assess the role of leptin in the anti-obesogenic effects of sphingolipid-like compound 893, the response of leptin-deficient ob/ob mice to sphingolipid-like compound 893 was measured. As expected, ob/ob mice were hyperphagic and became obese on the standard chow diet provided by University Lab Animal Resources (16% kcal from fat). Ob/ob animals were used in experiments once they attained an equivalent body weight to C57BL/6J mice fed the HFD for 24 weeks (FIG. 36).
Mice were fasted for 6 h prior to blood glucose testing at ZT10. When sphingolipid-like compound 893 treatment was combined with an OGTT, mice were treated at ZT6. Once baseline fasting blood glucose was determined using a handheld blood glucose meter (Prodigy Diabetes Care, Charlotte, N.C.) and a drop of blood collected from a tail vein nick, mice were gavaged with an oral glucose solution (20% w/v in water, 2 g/kg bodyweight) and blood glucose measured in a drop of tail vein blood at 0, 15, 30, 60 and 120 min. The area under the curve was determined using Graphpad Prism software.
Mice were singly housed and allowed to acclimate for 72 h before food intake was monitored. Food consumption was determined by monitoring the weight of food in the hopper. Initial food and body weight measurements were taken at ZT9 and final measurements were taken 16 h later to capture the active period where most consumption occurred. Home cage feeding studies were performed with C57BL/6J mice maintained on a HFD for 24 weeks (33 weeks of age), or ob/ob mice at 8 weeks of age. Mice received vehicle or 120 mg/kg sphingolipid-like compound 893 by gavage at ZT8.5. For experiments involving leptin, 18 week old, SD fed (16% kcal from fat, 2020×, Envigo) C57BL/6J mice received vehicle or 120 mg/kg sphingolipid-like compound 893 by gavage at ZT8.5. At ZT11.5, vehicle (20 mM Tris-Cl, pH 8.0) or 2 mg/kg recombinant mouse leptin (498-OB, R&D Systems, Minneapolis, Minn.) was delivered by intraperitoneal injection. The same 8 mice were used for all treatments following a 48 h washout period, and treatments were administered in the following order: vehicle, sphingolipid-like compound 893, leptin, and leptin+sphingolipid-like compound 893. All data collected from one mouse was excluded due to inadvertent pharyngeal administration during gavage reducing the n from 8 to 7 (FIG. 5a-d). […] One ob/ob mouse died during Echo MRI for unknown reasons after 6 d of treatment with sphingolipid-like compound 893; data from this mouse was analyzed prior to death.

Assay [2] deals with GLUT1. To be noted: cited from earlier work.
Assay [3] relates to A549 lung cancer cells. Put plainly: KRAS-mediated mitochondrial fission in A549 cells. The assay is classed as cell-based, human. To be noted: A549, oncogenic KRAS; 893 5 μM 1 h, leflunomide 50 μM 24 h. How it is done: 3T3-L1 cells were maintained in DMEM with 10% FBS and 1% penicillin-streptomycin until induced to differentiate. 3T3-L1 pre-adipocytes were differentiated as described in (M. P. Valley, et al., Anal. Biochem. 505: 43-50, 2016, the disclosure of which is incorporated herein by reference) with slight modifications. Briefly, pre-adipocytes were grown to confluence. After 2 d, cells were induced with maintenance media containing 500 μM IBMX (15879, Sigma-Aldrich, St. Louis, Mo.), 1 μM dexamethasone (D4902, Sigma-Aldrich), 5 μg/mL bovine insulin (10516, Sigma-Aldrich), and 5 μM troglitazone (50-115-0786, ApexBio). Media was changed every 2-3 d for 7 d. On day 7 post-induction, media was changed to maintenance media+5 μg/mL bovine insulin. On day 9 post-induction, media was changed to maintenance media. Mature adipocytes were used 12-14 d post-induction for all experiments. LSL-KrasG12D mouse embryonic fibroblasts (MEFs) with and without Cre-mediated deletion of the STOP cassette were obtained from David Tuveson (Cold Spring Harbor Laboratory, Cold Spring Harbor N.Y., USA) in 2000. p53^flox/flox MEFs were derived in house (2015) from C57BL/6 mice using standard techniques and immortalized by transient expression of Cre recombinase and deletion of p53. MEFs were cultured and maintained in DMEM with 10% FBS and 1% penicillin-streptomycin. A549 cells were cultured in DMEM with 10% FBS, 1% penicillin-streptomycin and 1% sodium pyruvate. Stock solution of palmitic acid (ACROS Organics, cat # AC129702500) was prepared at 100 mM in ethanol. Palmitate (250 μM) was conjugated to 1% (w/v) fatty-acid free bovine serum albumin (Sigma, A8806) in DMEM at 37° C. for 20 min. For all immunofluorescence assays, 8,000 MEFs were seeded into 8-chamber slides (Cellvis, cat # C8-1.5H-N) 12-16 h before treatment. Cells were pre-treated with sphingolipid-like compound 893 (5 μM in water), myriocin (10 μM in methanol), fumonisin-B1 (30 μM in DMSO), or celastrol (500 nM in DMSO) for 3 h followed by a 3 h treatment with BSA-conjugated palmitate mixture or BSA alone. […]
MEFs were washed twice with PBS and fixed with 4% paraformaldehyde for 10 min at RT. […] NADH/NADPH autofluorescence was detected with 740 nm excitation and 450±50 nm detectors using a Mai Tai two-photon laser. Fluorescence microscopy was performed on a Zeiss LSM 780 confocal using a 63× oil objective with a […] numerical aperture (NA) or using a Nikon TE2000-S inverted epifluorescence microscope with a 100× oil objective (1.3 NA) and a Photometrics CoolSNAP ES2 monochrome CCD camera. […]

For the molecule `CCCCCCCCc1ccc([C@H]2CCN[C@@H]2CO)cc1.Cl` [compound 893], the “Cumulative food intake, repeated dosing” value in assay [1] (120 mg/kg Mon/Wed/Fri for 2 weeks) is on record as “only a modest decrease in cumulative food intake”. Moreover, the “Fasting hyperglycemia and glucose tolerance” value in assay [1] (120 mg/kg Mon/Wed/Fri, OGTT at 14 d) is “failed to correct fasting hyperglycemia or restore glucose tolerance”. The “Food intake after a single dose” value in assay [1] (single oral dose 120 mg/kg) was “decreased food intake”. For the same molecule, the Body weight gain in assay [1] (six doses of 120 mg/kg over 2 weeks) is 5%. Besides, the “Effect on GLUT1” value in assay [2] is “down-regulate GLUT1”. Moreover, the “Reversal of mitochondrial fragmentation / tubularity in A549 cells” value in assay [3] is “rapidly corrected KRAS-mediated mitochondrial fission”.
